Data: US4005194A, “Treatment of prostatic hyperplasia” (Abbott Laboratories, priority 1975, dated 1977)

Legend:
Male rats [1] = details: rat, in vivo
Experimental: In an experiment similar to that of Example 5 with Groups I and III being treated as shown, but Group II being treated like Group III except with only 1 μg of Compound N, the test was continued for 51 days, starting with 22-day old male rats, 5 animals per group. The animals were sacrificed on day 52. […] Another three groups of 5 male rats were treated in the identical fashion, but the treatment was extended from the age of 22 days to day 138 (116 days).

Sprague Dawley male rat = details: in vivo
Experimental: Ten Sprague Dawley male rat 22 days of age and weighing 45-50 grams, were randomly divided into two groups. One group received the treatment described below. After 57 days of treatment, the animals from the non-treatment control group and those from the treatment group were sacrificed. The various organs were removed, trimmed of excess tissue and weighed. Body weights were taken weekly. Group I received no treatment; Group II received 10 μg of Compound N twice each day. The results are shown in Table I with each entry showing the mean value of the respective group.

Male rats [2] = details: rat, in vivo; remark: listed apart in the source
Experimental: Male rats, 22 days of age, were divided into 3 groups of five animals each. The 3 groups were treated exactly as described in Example 3, but the experiment was continued for 153 days. After 115 days, these animals were bred to untreated, cycling females (each male was caged with 2 cycling females in pro-estrus for 3 consecutive days, on 3-5 separate occasions).

Effect on normal weight gain and growth (Sprague Dawley male rat): essentially no effect
Breeding index (percentage of successful impregnations vs. opportunities to breed) (Male rats [2]): 23%
Course of resulting pregnancies (Male rats [2]): progressed normal
Number of pups (Male rats [2]): 10.4
Weight of pups on day 1 (Male rats [2]): 6.9 g
Weight of pups on day 4 (Male rats [2]): 11.7 g
Weight of pups on day 11 (Male rats [2]): 23.5 g
Weight of pups on day 21 (Male rats [2]): 44.3 g
Compound: CCNC(=O)[C@@H]1CCCN1C(=O)[C@H](CCCNC(=N)N)NC(=O)[C@H](CC(C)C)NC(=O)[C@@H](CC(C)C)NC(=O)[C@H](Cc1ccc(O)cc1)NC(=O)[C@H](CO)NC(=O)[C@H](Cc1c[nH]c2ccccc12)NC(=O)[C@H](Cc1c[nH]cn1)NC(=O)[C@@H]1CCC(=O)N1 [Compound N]
Outward signs or organic changes over the control group (Male rats [1]): None of the treated animals in this experiment showed any outward signs or organic changes
